Experimental data from ChEMBL document CHEMBL4414573, “Competitive Binding Assay with an Umbelliferone-Based Fluorescent Rexinoid for Retinoid X Receptor Ligand Screening” (J Med Chem, 2019).

Target: T1, Retinoic acid receptor RXR-alpha (Homo sapiens, UniProt P19793)
T1 sequence (P19793 whole entry): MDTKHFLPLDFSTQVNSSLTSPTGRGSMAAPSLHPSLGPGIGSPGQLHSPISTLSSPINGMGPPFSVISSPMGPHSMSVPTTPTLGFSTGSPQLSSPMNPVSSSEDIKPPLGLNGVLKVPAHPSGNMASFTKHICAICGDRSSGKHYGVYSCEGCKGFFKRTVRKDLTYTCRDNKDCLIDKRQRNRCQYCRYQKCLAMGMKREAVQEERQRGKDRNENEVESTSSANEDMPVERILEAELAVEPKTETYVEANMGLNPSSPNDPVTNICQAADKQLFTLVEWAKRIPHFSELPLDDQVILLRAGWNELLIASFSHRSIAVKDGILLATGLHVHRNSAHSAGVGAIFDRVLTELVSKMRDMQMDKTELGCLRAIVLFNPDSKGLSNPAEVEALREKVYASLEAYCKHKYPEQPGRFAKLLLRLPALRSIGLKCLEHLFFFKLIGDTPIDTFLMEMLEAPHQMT
Assay: Displacement of CU-6PMN from human RXRalpha LBD incubated for 2 hrs by fluorescence based assay; call rule not given here

Ki (read-out: Ki) | Ki | SMILES
7.63 µM | – | CC/C=C\C/C=C\C/C=C\C/C=C\C/C=C\CCCC(=O)O [ICOSAPENT]
– | Not Active | CCCCCCCCCCCCCCCC(=O)O [PALMITIC ACID]
